Values of other authors as cited in patent publication US11202786B2, “Synthetic bile acid compositions and methods” (ALLERGAN SALES, LLC, priority 2007, dated 2021).

Key:
[1] = neutral pH
[2] = target: albumin (Homo sapiens, UniProt P02768); conditions: 0.4 mg/mL deoxycholate (comparable to the fasting state), in the presence of 26 mg/mL of albumin
Chain of albumin (P02768 25-609): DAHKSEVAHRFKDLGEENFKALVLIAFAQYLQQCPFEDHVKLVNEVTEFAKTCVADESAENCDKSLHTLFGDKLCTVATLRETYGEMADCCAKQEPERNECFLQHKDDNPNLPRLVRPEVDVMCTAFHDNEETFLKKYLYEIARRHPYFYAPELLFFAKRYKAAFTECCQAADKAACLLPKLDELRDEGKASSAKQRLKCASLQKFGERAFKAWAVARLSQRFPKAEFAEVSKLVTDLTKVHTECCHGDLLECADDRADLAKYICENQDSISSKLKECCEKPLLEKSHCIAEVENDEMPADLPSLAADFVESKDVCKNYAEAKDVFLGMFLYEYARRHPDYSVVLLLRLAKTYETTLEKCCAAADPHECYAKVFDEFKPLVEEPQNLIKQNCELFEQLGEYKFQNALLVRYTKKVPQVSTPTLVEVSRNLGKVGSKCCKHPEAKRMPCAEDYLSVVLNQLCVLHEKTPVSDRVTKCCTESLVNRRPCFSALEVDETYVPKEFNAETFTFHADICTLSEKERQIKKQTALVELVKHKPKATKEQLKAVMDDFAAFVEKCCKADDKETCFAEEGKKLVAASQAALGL

Q: Which results are given for `C[C@H](CCC(=O)[O-])[C@H]1CC[C@H]2[C@@H]3CC[C@@H]4C[C@H](O)CC[C@]4(C)[C@H]3C[C@H](O)[C@]12C.[Na+]` [Deoxycholate, sodium deoxycholate]?
A: solubility in acetone (acetone, compared with alcohol): even less soluble; soluble in water (water): 333 mg/mL; critical micelle concentration [1]: approximately 2.4 mg/mL; bound to albumin [2]: 98%
